Data on one compound can be found in paper PMC5218480 (PLoS ONE, 2017).

In the test the test system is MV-4-11 cells. The experiment in a line: Gene expression microarray analysis (Affymetrix PrimeView) and GSEA. The test is classed as cell-based, human. Set-up: RFU PODN (11730768_x_at) / Fold change /veh PODN (11730768_x_at) / RFU LINC00158 (11744669_a_at) / Fold change /veh LINC00158 (11744669_a_at) / RFU DUSP10 (11751237_a_at) / Fold change /veh DUSP10 (11751237_a_at) / RFU ID3 (11757404_x_at) / Fold change /veh ID3 (11757404_x_at) / RFU PLEKHG5 (11737974_s_at) / Fold change /veh PLEKHG5 (11737974_s_at) / RFU LRRC4B (11730491_at) / Fold change /veh LRRC4B (11730491_at) / RFU GIMAP4 (11747438_a_at) / Fold change /veh GIMAP4 (11747438_a_at) / RFU KRT8 (11758183_x_at) / Fold change /veh KRT8 (11758183_x_at) / RFU CNN1 (11734310_a_at) / Fold change /veh CNN1 (11734310_a_at) / RFU VPS37D (11726825_at) / Fold change /veh VPS37D (11726825_at) / RFU C10orf10 (11716522_x_at) / Fold change /veh C10orf10 (11716522_x_at) / RFU KIR2DL2 /// KIR2DL4 /// KIR2DL5A /// KIR2DL5B /// KIR2DS1 /// KIR2DS2 /// KIR2DS3 /// KIR2DS4 /// KIR3DL3 /// KIR3DL3 /// KIR3DS1 (11738374_at) / Fold change /veh KIR2DL2 /// KIR2DL4 /// KIR2DL5A /// KIR2DL5B /// KIR2DS1 /// KIR2DS2 /// KIR2DS3 /// KIR2DS4 /// KIR3DL3 /// KIR3DL3 /// KIR3DS1 (11738374_at) / RFU C1QL1 (11718748_at) / Fold change /veh C1QL1 (11718748_at) / RFU TMPRSS4 (11747572_a_at) / Fold change /veh TMPRSS4 (11747572_a_at) / RFU HAMP (11756126_x_at) / Fold change /veh HAMP (11756126_x_at) / RFU RNFT2 (11725882_a_at) / Fold change /veh RNFT2 (11725882_a_at) / RFU NR4A2 (11747474_a_at) / Fold change /veh NR4A2 (11747474_a_at) / RFU ABCC12 (11746883_a_at) / Fold change /veh ABCC12 (11746883_a_at) / RFU TMEM136 (11760407_x_at) / Fold change /veh TMEM136 (11760407_x_at) / RFU CLDN22 /// WWC2 (11732394_at) / Fold change /veh CLDN22 /// WWC2 (11732394_at) / RFU HLA-DPB1 (11760878_x_at) / Fold change /veh HLA-DPB1 (11760878_x_at) / RFU SPINT1 (11716480_a_at) / Fold change /veh SPINT1 (11716480_a_at) / RFU GAP43 (11754022_s_at) / Fold change /veh GAP43 (11754022_s_at) / RFU A4GNT (11735810_at) / Fold change /veh A4GNT (11735810_at) / RFU PRB3 (11715151_x_at) / Fold change /veh PRB3 (11715151_x_at) / RFU TUBB4B (11761932_at) / Fold change /veh TUBB4B (11761932_at) / RFU CAPN14 (11732068_a_at) / Fold change /veh CAPN14 (11732068_a_at) / RFU TMCC2 (11721928_a_at) / Fold change /veh TMCC2 (11721928_a_at) / RFU IRGQ (11745062_a_at) / Fold change /veh IRGQ (11745062_a_at) / RFU FAM174B (11720279_a_at) / Fold change /veh FAM174B (11720279_a_at) / RFU TMPRSS4 (11748680_a_at) / Fold change /veh TMPRSS4 (11748680_a_at) / RFU FAM212B (11763350_a_at) / Fold change /veh FAM212B (11763350_a_at) / RFU PLEKHG5 (11743358_a_at) / Fold change /veh PLEKHG5 (11743358_a_at) / RFU ZSCAN30 (11745921_a_at) / Fold change /veh ZSCAN30 (11745921_a_at) / RFU CMKLR1 (11741424_a_at) / Fold change /veh CMKLR1 (11741424_a_at) / RFU LOC101060620 /// MAPK8IP1 (11723275_at) / Fold change /veh LOC101060620 /// MAPK8IP1 (11723275_at) / RFU SPTSSB (11747773_x_at) / Fold change /veh SPTSSB (11747773_x_at) / RFU PRSS12 (11739890_at) / Fold change /veh PRSS12 (11739890_at) / RFU BIN1 (11741810_x_at) / Fold change /veh BIN1 (11741810_x_at) / RFU WNT11 (11732464_a_at) / Fold change /veh WNT11 (11732464_a_at) / RFU C10orf10 (11716521_a_at) / Fold change /veh C10orf10 (11716521_a_at) / RFU C5orf56 (11738089_at) / Fold change /veh C5orf56 (11738089_at) / RFU CYB561 (11721691_x_at) / Fold change /veh CYB561 (11721691_x_at) / RFU ANKRD19P (11752326_a_at) / Fold change /veh ANKRD19P (11752326_a_at) / RFU OR2T12 /// OR2T33 /// OR2T8 (11738714_s_at) / Fold change /veh OR2T12 /// OR2T33 /// OR2T8 (11738714_s_at) / RFU VCAN (11748164_a_at) / Fold change /veh VCAN (11748164_a_at) / RFU JSRP1 (11732532_at) / Fold change /veh JSRP1 (11732532_at) / RFU KRTAP10-11 (11738290_x_at) / Fold change /veh KRTAP10-11 (11738290_x_at) / RFU MYO3A (11730013_a_at) / Fold change /veh MYO3A (11730013_a_at) / RFU EBF3 (11725865_a_at) / Fold change /veh EBF3 (11725865_a_at) / RFU CAMK2N1 (11719241_x_at) / Fold change /veh CAMK2N1 (11719241_x_at) / RFU C5orf56 (11738088_a_at) / Fold change /veh C5orf56 (11738088_a_at) / RFU OLFML3 (11715873_a_at) / Fold change /veh OLFML3 (11715873_a_at) / RFU LOC100653217 /// NTM (11731650_a_at) / Fold change /veh LOC100653217 /// NTM (11731650_a_at) / RFU MAPK11 (11762145_a_at) / Fold change /veh MAPK11 (11762145_a_at) / RFU FIZ1 (11724087_x_at) / Fold change /veh FIZ1 (11724087_x_at) / RFU OASL (11726364_x_at) / Fold change /veh OASL (11726364_x_at) / RFU SOX15 (11748057_x_at) / Fold change /veh SOX15 (11748057_x_at) / RFU CD79A (11719716_a_at) / Fold change /veh CD79A (11719716_a_at) / RFU HIST1H1D (11736915_at) / Fold change /veh HIST1H1D (11736915_at) / RFU CASKIN2 (11723855_a_at) / Fold change /veh CASKIN2 (11723855_a_at) / RFU LOC730098 (11760151_x_at) / Fold change /veh LOC730098 (11760151_x_at) / RFU OR4N2 (11742367_at) / Fold change /veh OR4N2 (11742367_at) / RFU PRRT2 (11749266_a_at) / Fold change /veh PRRT2 (11749266_a_at) / RFU SNX32 (11753110_a_at) / Fold change /veh SNX32 (11753110_a_at) / RFU CDHR5 (11726645_a_at) / Fold change /veh CDHR5 (11726645_a_at) / RFU RCAN1 (11760418_a_at) / Fold change /veh RCAN1 (11760418_a_at) / RFU FAM167A (11723789_a_at) / Fold change /veh FAM167A (11723789_a_at) / RFU FAM26E (11764081_at) / Fold change /veh FAM26E (11764081_at) / RFU ISYNA1 (11749810_s_at) / Fold change /veh ISYNA1 (11749810_s_at) / RFU ACY1 (11761880_at) / Fold change /veh ACY1 (11761880_at) / RFU 11764098_at / Fold change /veh 11764098_at / RFU SAMD14 (11745864_x_at) / Fold change /veh SAMD14 (11745864_x_at) / RFU NPB (11741838_a_at) / Fold change /veh NPB (11741838_a_at) / RFU TMPRSS6 (11731388_a_at) / Fold change /veh TMPRSS6 (11731388_a_at) / RFU KRTAP10-2 (11738614_at) / Fold change /veh KRTAP10-2 (11738614_at) / RFU ARHGAP8 /// PRR5-ARHGAP8 (11727945_x_at) / Fold change /veh ARHGAP8 /// PRR5-ARHGAP8 (11727945_x_at) / RFU KRTAP5-7 /// NADSYN1 (11734609_at) / Fold change /veh KRTAP5-7 /// NADSYN1 (11734609_at) / RFU RASL12 (11751679_a_at) / Fold change /veh RASL12 (11751679_a_at) / RFU CDKN2B (11736163_a_at) / Fold change /veh CDKN2B (11736163_a_at) / RFU PRF1 (11729649_at) / Fold change /veh PRF1 (11729649_at) / RFU, ZNF638 /// ZNF638-IT1 / Fold change vs veh, ZNF638 /// ZNF638-IT1 / RFU, PANK3 / Fold change vs veh, PANK3 / RFU, SH3YL1 / Fold change vs veh, SH3YL1 / RFU, ZEB2 / Fold change vs veh, ZEB2 / RFU, NRIP1 / Fold change vs veh, NRIP1 / RFU, PTTG1IP / Fold change vs veh, PTTG1IP / RFU, CAPN2 / Fold change vs veh, CAPN2 / RFU, MED14 / Fold change vs veh, MED14 / RFU, SNORA58 / Fold change vs veh, SNORA58 / RFU, C1orf63 / Fold change vs veh, C1orf63 / RFU, LRRFIP1 / Fold change vs veh, LRRFIP1 / RFU, NDUFAF7 / Fold change vs veh, NDUFAF7 / RFU, SLC12A2 / Fold change vs veh, SLC12A2 / RFU, IBTK / Fold change vs veh, IBTK / RFU, ESF1 / Fold change vs veh, ESF1 / Fold change vs veh, TMEM50B / RFU, TAOK1 / Fold change vs veh, TAOK1 / RFU, ACBD3 / Fold change vs veh, ACBD3 / RFU, TMA16 / Fold change vs veh, TMA16 / RFU, RWDD3 / Fold change vs veh, RWDD3 / RFU, BCAT1 / Fold change vs veh, BCAT1 / RFU, EDEM3 / Fold change vs veh, EDEM3 / RFU, TMEM33 / Fold change vs veh, TMEM33 / RFU, WDR75 / Fold change vs veh, WDR75 / RFU, AHCTF1 / Fold change vs veh, AHCTF1 / RFU, TFRC / Fold change vs veh, TFRC / RFU, ZDHHC17 / Fold change vs veh, ZDHHC17 / RFU, NOM1 / Fold change vs veh, NOM1 / RFU, ARL8B / Fold change vs veh, ARL8B / RFU, ZBTB11 / Fold change vs veh, ZBTB11 / RFU, TAMM41 / Fold change vs veh, TAMM41 / RFU, KIAA1704 /// LOC100996395 / Fold change vs veh, KIAA1704 /// LOC100996395 / RFU, ING1 / Fold change vs veh, ING1 / RFU, TRMT61B / Fold change vs veh, TRMT61B / RFU, FUBP3 / Fold change vs veh, FUBP3 / RFU, TP53 / Fold change vs veh, TP53 / RFU, TNKS2 / Fold change vs veh, TNKS2 / RFU, ZFP14 / Fold change vs veh, ZFP14 / RFU, ACTR2 / Fold change vs veh, ACTR2 / RFU, PPP3R1 / Fold change vs veh, PPP3R1 / RFU, PIK3R1 / Fold change vs veh, PIK3R1 / RFU, HNRNPA1 / Fold change vs veh, HNRNPA1 / RFU, RNF170 / Fold change vs veh, RNF170 / RFU, ZNF28 / Fold change vs veh, ZNF28 / RFU, RNGTT / Fold change vs veh, RNGTT / RFU, OGT / Fold change vs veh, OGT / RFU, BRD1 / Fold change vs veh, BRD1 / RFU, MARS / Fold change vs veh, MARS / RFU, ZNF655 / Fold change vs veh, ZNF655 / RFU, FAHD1 / Fold change vs veh, FAHD1 / RFU, BDP1 / Fold change vs veh, BDP1 / RFU, LRRCC1 / Fold change vs veh, LRRCC1 / RFU, ARID1A / Fold change vs veh, ARID1A / RFU, ZNF146 / Fold change vs veh, ZNF146 / RFU, ZNF330 / Fold change vs veh, ZNF330 / RFU, GPN3 / Fold change vs veh, GPN3 / RFU, C9orf123 / Fold change vs veh, C9orf123 / RFU, N4BP2L2 / Fold change vs veh, N4BP2L2 / RFU, ARFIP1 / Fold change vs veh, ARFIP1 / RFU, FAM179B / Fold change vs veh, FAM179B / RFU, BCL10 / Fold change vs veh, BCL10 / RFU, UHRF1BP1L / Fold change vs veh, UHRF1BP1L / RFU, BET1 / Fold change vs veh, BET1 / RFU, CNOT2 / Fold change vs veh, CNOT2 / RFU, ZNF268 / Fold change vs veh, ZNF268 / Fold change vs veh, ZNF507 / RFU, DGCR2 / Fold change vs veh, DGCR2 / RFU, WDSUB1 / Fold change vs veh, WDSUB1 / Fold change vs veh, HSP90B1 /// MIR3652 / RFU, ADSS / Fold change vs veh, ADSS / RFU, GK / Fold change vs veh, GK / RFU, ZNF148 / Fold change vs veh, ZNF148 / RFU, TAF9 / Fold change vs veh, TAF9 / RFU, SLC1A5 / Fold change vs veh, SLC1A5 / RFU, SLMO2 / Fold change vs veh, SLMO2 / RFU, ABCC4 / Fold change vs veh, ABCC4 / RFU, LOC101060439 /// RAP1B / Fold change vs veh, LOC101060439 /// RAP1B / RFU, RFX7 / Fold change vs veh, RFX7 / RFU, GTPBP10 / Fold change vs veh, GTPBP10 / RFU, CNEP1R1 / Fold change vs veh, CNEP1R1 / RFU, BIVM-ERCC5 /// ERCC5 / Fold change vs veh, BIVM-ERCC5 /// ERCC5 / RFU, ILF3 / Fold change vs veh, ILF3 / RFU 11762660_at / Fold change /veh 11762660_at / RFU VCAN (11757783_s_at) / Fold change /veh VCAN (11757783_s_at) / RFU DDX43 (11728927_at) / Fold change /veh DDX43 (11728927_at) / RFU KRT8 (11758188_x_at) / Fold change /veh KRT8 (11758188_x_at) / RFU NKD1 (11759106_at) / Fold change /veh NKD1 (11759106_at) / RFU SRD5A1 (11742802_a_at) / Fold change /veh SRD5A1 (11742802_a_at) / RFU TPSAB1 /// TPSB2 (11721975_s_at) / Fold change /veh TPSAB1 /// TPSB2 (11721975_s_at) / RFU GSTM3 (11746129_a_at) / Fold change /veh GSTM3 (11746129_a_at) / RFU IL23R (11737362_x_at) / Fold change /veh IL23R (11737362_x_at) / RFU TMEM51 (11727254_a_at) / Fold change /veh TMEM51 (11727254_a_at) / RFU PIWIL2 (11732686_x_at) / Fold change /veh PIWIL2 (11732686_x_at) / RFU ORM1 (11744905_x_at) / Fold change /veh ORM1 (11744905_x_at) / RFU CCDC152 (11743942_at) / Fold change /veh CCDC152 (11743942_at) / RFU ECM1 (11717891_a_at) / Fold change /veh ECM1 (11717891_a_at) / RFU IL23R (11748794_a_at) / Fold change /veh IL23R (11748794_a_at) / RFU TNFAIP8L3 (11732012_x_at) / Fold change /veh TNFAIP8L3 (11732012_x_at) / RFU MBOAT4 (11741988_at) / Fold change /veh MBOAT4 (11741988_at) / RFU 11764193_at / Fold change /veh 11764193_at / RFU TMEM53 (11763286_at) / Fold change /veh TMEM53 (11763286_at) / RFU MAGEB2 (11727129_at) / Fold change /veh MAGEB2 (11727129_at) / RFU TMEM200A (11744735_a_at) / Fold change /veh TMEM200A (11744735_a_at) / RFU CCDC152 (11751479_a_at) / Fold change /veh CCDC152 (11751479_a_at) / RFU FAM211A (11726209_a_at) / Fold change /veh FAM211A (11726209_a_at) / RFU RGS16 (11746705_a_at) / Fold change /veh RGS16 (11746705_a_at) / RFU VCAN (11755009_s_at) / Fold change /veh VCAN (11755009_s_at) / RFU RHOB (11743442_s_at) / Fold change /veh RHOB (11743442_s_at) / RFU RGS16 (11720943_a_at) / Fold change /veh RGS16 (11720943_a_at) / RFU RGS16 (11720944_at) / Fold change /veh RGS16 (11720944_at) / RFU, VPS4B / Fold change vs veh, VPS4B / RFU, CREB1 / Fold change vs veh, CREB1 / RFU, DNAJC13 / Fold change vs veh, DNAJC13 / RFU, GNAQ / Fold change vs veh, GNAQ / RFU, CDK5R1 / Fold change vs veh, CDK5R1 / RFU, ZRANB3 / Fold change vs veh, ZRANB3 / RFU, CUL4A / Fold change vs veh, CUL4A / RFU, CCNY / Fold change vs veh, CCNY / RFU, UFL1 / Fold change vs veh, UFL1 / RFU, COG3 / Fold change vs veh, COG3 / RFU, DIAPH2 / Fold change vs veh, DIAPH2 / RFU, SKA2 / Fold change vs veh, SKA2 / RFU, AFF3 / Fold change vs veh, AFF3 / RFU, LMF1 / Fold change vs veh, LMF1 / RFU, IPO11 / Fold change vs veh, IPO11 / RFU, DFFB / Fold change vs veh, DFFB / RFU, FOXP1 / Fold change vs veh, FOXP1 / RFU, CARD8 / Fold change vs veh, CARD8 / RFU, STRN3 / Fold change vs veh, STRN3 / RFU, ADK / Fold change vs veh, ADK / RFU, RASSF2 / Fold change vs veh, RASSF2 / RFU, WIPF1 / Fold change vs veh, WIPF1 / RFU, LARP1B / Fold change vs veh, LARP1B / RFU, RASA1 / Fold change vs veh, RASA1 / RFU, RB1 / Fold change vs veh, RB1 / RFU, PPFIA1 / Fold change vs veh, PPFIA1 / RFU, MAT2A / Fold change vs veh, MAT2A / RFU, CCT5 / Fold change vs veh, CCT5 / RFU, WDR92 / Fold change vs veh, WDR92 / RFU, CUX1 / Fold change vs veh, CUX1 / RFU, TTC7A / Fold change vs veh, TTC7A / RFU, TMEM135 / Fold change vs veh, TMEM135 / RFU, DEPTOR / Fold change vs veh, DEPTOR / RFU, CPM / Fold change vs veh, CPM / RFU, DNAJB6 / Fold change vs veh, DNAJB6 / RFU, CACNA2D3 / Fold change vs veh, CACNA2D3 / RFU, DTX4 / Fold change vs veh, DTX4 / RFU, TFCP2 / Fold change vs veh, TFCP2 / RFU, GMCL1 /// GMCL1P1 / Fold change vs veh, GMCL1 /// GMCL1P1 / RFU, AEBP2 / Fold change vs veh, AEBP2 / RFU, SNHG1 /// SNORD22 /// SNORD25 /// SNORD26 /// SNORD27 /// SNORD28 /// SNORD29 /// SNORD31 / Fold change vs veh, SNHG1 /// SNORD22 /// SNORD25 /// SNORD26 /// SNORD27 /// SNORD28 /// SNORD29 /// SNORD31 / Fold change (Aza/veh), C12orf56 (ProbeSet 11735607_a_at) / Fold change (ACY-1035/veh), C12orf56 (ProbeSet 11735607_a_at) / Fold change (Aza/veh), FGFR1OP (ProbeSet 11751329_s_at) / Fold change (ACY-1035/veh), FGFR1OP (ProbeSet 11751329_s_at) / Fold change (Aza/veh), VPS36 (ProbeSet 11739960_a_at) / Fold change (ACY-1035/veh), VPS36 (ProbeSet 11739960_a_at) / RFU SYPL1 (11715823_x_at) / Fold change /veh SYPL1 (11715823_x_at) / RFU IGFBP7 (11715501_s_at) / Fold change /veh IGFBP7 (11715501_s_at) / RFU REEP3 (11722064_at) / Fold change /veh REEP3 (11722064_at) / RFU IGLL1 (11728026_x_at) / Fold change /veh IGLL1 (11728026_x_at): dose or concentration left out as unconfirmed. To be noted: MV-4-11 cells, 48 hours.

Regarding `Nc1ccc(-c2cccs2)cc1NC(=O)c1ccc2c(c1)cc(C1CC1)n2CCN1CCOCC1` [ACY-1035], the “Fold change /veh OLFML3 (11715873_a_at)” value is 1.17.
